Data as given in patent publication US20250354979A1, “DRUG EVALUATION METHOD, REAGENT, AND KIT” (FUJIFILM Corporation, priority 2023, published 2025).

Experiments:
[1] = tested on: human iPS cell-derived myocardial cells; assay: Heart rate of myocardial cells by MEA, serum-free culture medium with isoproterenol added; format: cell-based; conditions: serum-free culture medium with 1 μmol/L isoproterenol; cumulative drug concentrations, 20 minutes after addition; vs medium control
Protocol: Example 1: Method and results of evaluating decrease in heart rate by muscarinic receptor agonist (carbachol) using serum-free culture medium to which adrenergic receptor agonist (isoproterenol) is added Human iPS cell-derived myocardial cells (iCell myocardial cells 2.0, manufactured by FUJIFILM Cellular Dynamics, Inc.) in a frozen state were thawed, suspended in a thawing culture medium (iCell myocardial cell thawing culture medium, manufactured by FUJIFILM Cellular Dynamics, Inc.), and then seeded at a cell density of 50,000 cells per well on a MEA plate (Cyto View MEA 48, manufactured by Axion BioSystems, Inc.). The seeding density of myocardial cells in the vicinity of the electrode was 2,671 cells/mm^2. After the plate was allowed to stand in a CO2 incubator for several hours, a maintenance culture medium (iCell myocardial cell maintenance culture medium, manufactured by FUJIFILM Cellular Dynamics, Inc.) containing serum was added, and the myocardial cells were cultured in the CO2 incubator for about one week. […]
On the day of measurement, the MEA plate on which human iPS cell-derived myocardial cells were cultured was placed in an MEA system (Maestro Pro, manufactured by Axion BioSystems, Inc.), 1 μmol/L of isoproterenol (manufactured by Tokyo Chemical Industry Co., Ltd.) was added to the culture medium, and then the extracellular potential was measured after 20 minutes from the addition (medium control, carbachol concentration: 0 μmol/L). Subsequently, 0.01 μmol/L of carbachol (manufactured by Tokyo Chemical Industry Co., Ltd.) was added to the MEA plate, and then the extracellular potential was measured after 20 minutes from the addition. Similarly, carbachol was added to give concentrations of 0.1 μmol/L, 1 μmol/L, and 10 μmol/L, and then the extracellular potential was measured at each concentration.
From the measurement results of the extracellular potential, the interval between sharp peaks indicating depolarization of human iPS cell-derived myocardial cells was taken as the beating time (sec), and the heart rate (/min)=60/ beating time (sec) was calculated. […]

[2] = tested on: human iPS cell-derived myocardial cells; assay: Heart rate of myocardial cells by MEA, serum-free culture medium with isoproterenol and carbachol added; format: cell-based; conditions: serum-free culture medium with 1 μmol/L isoproterenol and 3 μmol/L carbachol; cumulative drug concentrations, 20 minutes after addition; vs medium control
Protocol: Example 4: Method and results of evaluating increase in heart rate by muscarinic receptor inhibitor (atropine) using serum-free culture medium to which adrenergic receptor agonist (isoproterenol) and muscarinic receptor agonist (carbachol) are added Human iPS cell-derived myocardial cells (iCell myocardial cells 2.0, manufactured by FUJIFILM Cellular Dynamics, Inc.) in a frozen state were thawed, suspended in a thawing culture medium (iCell myocardial cell thawing culture medium, manufactured by FUJIFILM Cellular Dynamics, Inc.), and then seeded at a cell density of 50,000 cells per well on a MEA plate (Cyto View MEA 48, manufactured by Axion BioSystems, Inc.). The seeding density of myocardial cells in the vicinity of the electrode was 2,725 cells/mm^2. After the plate was allowed to stand in a CO2 incubator for several hours, a maintenance culture medium (iCell myocardial cell maintenance culture medium, manufactured by FUJIFILM Cellular Dynamics, Inc.) containing serum was added, and the myocardial cells were cultured in the CO2 incubator for about one week. The culture medium was exchanged with a serum-free culture medium (a myocardial cell serum-free assay culture medium, manufactured by FUJIFILM Cellular Dynamics, Inc.) on the day before the measurement.
On the day of measurement, the MEA plate on which human iPS cell-derived myocardial cells were cultured was placed in an MEA system (Maestro Pro, manufactured by Axion BioSystems, Inc.), 1 μmol/L of isoproterenol (manufactured by Tokyo Chemical Industry Co., Ltd.) and 3 μmol/L of carbachol (manufactured by Tokyo Chemical Industry Co., Ltd.) were added to the culture medium, and then the extracellular potential was measured after 20 minutes from the addition (medium control, atropine concentration: 0 μmol/L). Subsequently, 0.01 μmol/L of atropine (manufactured by Tokyo Chemical Industry Co., Ltd.) was added to the MEA plate, and then the extracellular potential was measured after 20 minutes from the addition. Similarly, atropine was added to give concentrations of 0.1 μmol/L and 1 μmol/L, and then the extracellular potential was measured at each concentration.
From the measurement results of the extracellular potential, the interval between sharp peaks indicating depolarization of human iPS cell-derived myocardial cells was taken as the beating time (sec), and the heart rate (/min)=60/beating time (sec) was calculated. The addition of atropine was confirmed to result in an increase in heart rate of up to 51% (FIG. 7).
In the same manner as in Example 4, evaluation was carried out using an MEA plate on which human iPS cell-derived myocardial cells were cultured. Specifically, the same operations as in Example 4 were carried out except that atropine added in Example 4 was changed to tiotropium (manufactured by Tokyo Chemical Industry Co., Ltd.) and the concentration of tiotropium added was 1 pmol/L, 10 pmol/L, 100 pmol/L, and 1,000 pmol/L.
In the same manner as in Example 4, evaluation was carried out using an MEA plate on which human iPS cell-derived myocardial cells were cultured. Specifically, the same operations as in Example 4 were carried out except that atropine added in Example 4 was changed to glycopyrronium (manufactured by Tokyo Chemical Industry Co., Ltd.) and the concentration of glycopyrronium added was 0.01 nmol/L, 0.1 nmol/L, 1 nmol/L, and 10 nmol/L.
In the same manner as in Example 4, evaluation was carried out using an MEA plate on which human iPS cell-derived myocardial cells were cultured. Specifically, the same operations as in Example 4 were carried out except that the atropine added in Example 4 was changed to propranolol (manufactured by FUJIFILM Wako Pure Chemical Corporation) and the concentration of propranolol added was 0.1 nmol/L, 1 nmol/L, 10 nmol/L, and 100 nmol/L.
In the same manner as in Example 4, evaluation was carried out using an MEA plate on which human iPS cell-derived myocardial cells were cultured. […]

## CC[C@@H]1C(=O)OC[C@@H]1Cc1cncn1C [pilocarpine]
[1]
  decrease in heart rate: up to 15%

## CC(=O)Oc1ccccc1C(=O)O [aspirin]
[2]
  increase in heart rate: at most 17%

## CC(C)NCC(O)COc1cccc2ccccc12 (stereo not shown) [propranolol]
[2]
  decrease in heart rate: up to 28%

## C[N+]1(C)CCC(OC(=O)C(O)(c2ccccc2)C2CCCC2)C1 (stereo not shown) [glycopyrronium]
[2]
  increase in heart rate: up to 36%

## CC(C)NCC(O)COc1ccc(CC(N)=O)cc1 (stereo not shown) [atenolol]
[2]
  decrease in heart rate: up to 22%

## C[N+]1(C)[C@@H]2C[C@@H](OC(=O)C(O)(c3cccs3)c3cccs3)C[C@H]1[C@@H]1O[C@@H]12 [tiotropium]
[2]
  increase in heart rate: up to 36%

## CC1OC2(CS1)CN1CCC2CC1 (stereo not shown) [cevimeline]
[1]
  decrease in heart rate: up to 26%
